#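 Where inhibition never reached the appropriate level, the endpoint shown equals the highest concentration tested. Otherwise, values were interpolated linearly from a five-concentration, 48-hour dose response in 96-well plates. GI50 is the concentration that inhibits growth by half. TGI marks complete inhibition of growth.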 Where a SMILES comes first, the peptide text is derived from it. [ ]: non-standard residue; d: D form. The star is where a group is joined. ξ: configuration not given here. X16 = COC1=CC(=O)N(C(=O)C(O*)C(C)C)C1Cc1ccccc1; ξNMe2Val = CC(C)C(C(=O)*)N(C)C; NMeV = CN[CH](C(=O)O)C(C)C
# Key:
# Experiment in all cases: DTP human tumour cell line panel, 48 h
# [1] = system: OVCAR-4 ovarian
# [2] = system: HCT-15 colon
# [3] = system: OVCAR-5 ovarian
# [4] = system: IGROV1 ovarian
# [5] = system: MALME-3M melanoma
# [6] = system: UACC-257 melanoma
# [7] = system: A549 NSCLC
# [8] = system: SNB-75 CNS
# [9] = system: 786-0 renal
# [10] = system: MDA-MB-231 breast
Structure (SMILES),TGI [1] [µM],TGI [2] [µM],TGI [3] [µM],TGI [4] [µM],TGI [5] [µM],TGI [6] [µM],TGI [7] [µM],TGI [8] [µM],GI50 [1] [nM],GI50 [2] [nM],GI50 [3] [nM],GI50 [4] [nM],GI50 [5] [nM],GI50 [7] [nM],GI50 [8] [nM],TGI [9] [µM],TGI [10] [µM]
OCC(O)COc1ccc(Br)cc1 (stereo not drawn),> 100,> 100,> 100,> 100,> 100,> 100,> 100,> 100,,,,,,,,,
COC1=CC(=O)N(C(=O)C(OC(=O)C2CCCN2C(=O)C2CCCN2C(=O)C(C(C)C)N(C)C(=O)C(NC(=O)C(C(C)C)N(C)C)C(C)C)C(C)C)C1Cc1ccccc1 (stereo not drawn) (ξNMe2Val-V[NMeV]PP-X16; configuration not given here),> 4,0.431,> 4,> 4,> 4,,> 4,,663,< 0.4,> 4000,< 0.4,< 0.4,7.15,< 0.4,,
COC(=O)OC[C@H]1O[C@@H](n2cc(C)c(=O)[nH]c2=O)CC1OC(=O)OC (stereo partly drawn),> 100,> 100,> 100,> 100,> 100,,> 100,> 100,,,,,,,,> 100,> 100
C/C(=N\Nc1nc2cc(C)ccc2s1)c1ccccn1,> 60.5,30.3,19.9,,> 22,> 100,> 31.6,22.7,,,,,,,,9.59,0.93
Oc1c(Cl)c2nccnc2c2ccccc12,> 100,> 100,> 100,> 100,> 100,> 100,> 100,> 100,,,,,,,,> 100,
CC1(C)CCc2c(cc3c(c2O)CCC(C)(C)O3)O1,> 100,> 100,> 100,> 100,> 100,> 100,> 100,> 100,,,,,,,,,> 100
C=C1CC2CC[C@@]34C[C@@H]5O[C@@H]6C(O[C@H]7CC[C@H](CC(=O)OC8[C@@H](C)C9OC%10C[C@]%11(C[C@@H]%12O[C@@]%13(C[C@@H](C)[C@@H]%12O%11)C[C@H](C)[C@@H]%11OC%12CC(C(O)CO)OC%12C[C@@H]%11O%13)OC%10CC9O[C@H]8C[C@H]8O[C@@H](CC[C@@H]1O2)C[C@@H](C)C8=C)O[C@@H]7[C@@H]6O3)C5O4 (stereo partly drawn),> 1.48,,> 1.48,> 1.48,0.00977,,> 1.48,0.00367,> 1480,0.233,> 1480,< 0.148,,< 0.148,,,
O=c1cnn(C2OC(CO)C(O)C(F)C2O)c(=O)[nH]1 (stereo not drawn),> 100,> 100,> 100,> 100,> 100,> 100,> 100,,,,,,,,,> 100,> 100
COC(=O)Cc1c([C@@H]2Nc3ccccc3[C@H]2CC(=O)OC)[nH]c2ccccc12,> 100,> 100,> 100,> 100,,81.6,> 100,> 100,,,,,,,,> 100,88.9
CCCCCCCCCCCCNC(=O)NCC(OCC)OCC,> 10,> 10,> 10,> 10,,> 10,> 10,> 10,,,,,,,,> 10,> 10
COc1c2cc(C(C)(C)C)cc1CSCc1cc(C(C)(C)C)cc(c1OC)CCCCC2,,> 50,> 50,> 50,> 50,49.1,> 50,> 50,,,,,,,,> 50,> 50
N#CI1OC(=O)c2ccccc21,> 100,> 100,> 100,> 100,,> 100,> 100,> 100,,,,,,,,> 100,> 100
COc1c(C2(c3ccc(F)cc3)SCCCS2)c(=O)c1=O,> 100,> 100,> 100,,> 100,> 100,> 100,> 100,,,,,,,,> 100,> 100
O=S(=O)(O)c1cc(Cl)c(O)c2ncc(Cl)cc12,> 100,> 100,> 100,> 100,,> 100,> 100,> 100,,,,,,,,> 100,> 100
c1ccc2[nH]c(-c3nc4ccccc4o3)nc2c1,> 100,> 100,> 100,> 100,> 100,> 100,> 100,> 100,,,,,,,,> 100,
CC1C(c2ccc(N(C)C)cc2)c2cc3c(cc2OC1N1CCCC1)OCO3 (stereo not drawn),> 100,> 100,> 100,> 100,> 100,> 100,> 100,> 73,,,,,,,,> 100,
c1cc(-c2cscc2-c2ccsc2)cs1,> 100,> 100,> 100,> 100,,> 100,> 100,> 100,,,,,,,,> 100,> 100
O=S(=O)(O)c1ccc(NN(c2c(O)ccc3ccccc23)S(=O)(=O)O)cc1,> 100,> 100,> 100,> 100,> 100,> 100,> 100,,,,,,,,,> 100,> 100
CCOC(=O)NNC(=O)NCCNC(=O)NNC(=O)OCC,> 100,> 100,> 100,,> 100,> 100,> 100,> 100,,,,,,,,> 100,> 100
C[N+]1(C)CC=C(N2CCOCC2)CC1,> 10,> 10,,> 10,> 10,> 10,> 10,> 10,,,,,,,,> 10,> 10
Cc1ccc(OP2(=O)Oc3ccc4ccccc4c3CN2c2ccc(Cl)cc2)cc1C (stereo not drawn),> 100,> 100,> 100,> 100,> 100,> 100,> 100,> 100,,,,,,,,,

# Reference: PubChem BioAssay (NCI)
